Test results from patent publication US6723897B2, “Methods for controlling gibberellin levels” (Monsanto Technology, LLC, priority 1998, dated 2004).

System: GA-deficient (Line 719, R5) soybeans
Assay: Hilum treatment with GA15, GA19, GA24, GA44, hypocotyl length, GA-deficient soybean
Format: in vivo, Glycine max
Conditions: 10 μg/seed, 5 DAP
Description: Transgenic seeds are fifth generation (R5) line 719 seeds.

C=C1C[C@]23C[C@@]1(O)CC[C@H]2[C@]1(C=O)CCC[C@@](C)(C(=O)O)[C@H]1[C@@H]3C(=O)O [GA19]
hypocotyl height of GA-deficient (Line 719) soybeans (FIG. 41): restored normal or greater hypocotyl height

C=C1C[C@]23C[C@@]1(O)CC[C@H]2[C@@]12CCC[C@@](C)(C(=O)OC1)[C@H]2[C@@H]3C(=O)O [GA44]
hypocotyl height of GA-deficient (Line 719) soybeans (FIG. 41): restored normal or greater hypocotyl height
